In PubChem BioAssay (NCI):
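Here, GI50 denotes the concentration required for 50% inhibition of growth. Definition used: TGI = concentration required for complete inhibition of growth.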

Legend:
Assay in all cases: NCI tumour cell line growth inhibition, 384-well format
NCI-H226 lung = test system: NCI-H226 lung
CCRF-CEM leukemia = test system: CCRF-CEM leukemia
PC-3 prostate = test system: PC-3 prostate
MOLT-4 leukemia = test system: MOLT-4 leukemia
CAKI-1 renal = test system: CAKI-1 renal
IGROV1 ovarian = test system: IGROV1 ovarian
NCI-H460 NSCLC = test system: NCI-H460 NSCLC
A498 renal = test system: A498 renal
SR leukemia = test system: SR leukemia
KM12 colon = test system: KM12 colon
M14 melanoma = test system: M14 melanoma
SNB-19 CNS = test system: SNB-19 CNS
NCI/ADR-RES ovarian = test system: NCI/ADR-RES ovarian
SK-MEL-28 melanoma = test system: SK-MEL-28 melanoma
SF-539 CNS = test system: SF-539 CNS
COLO 205 colon = test system: COLO 205 colon
RPMI-8226 leukemia = test system: RPMI-8226 leukemia
HOP-92 NSCLC = test system: HOP-92 NSCLC
OVCAR-4 ovarian = test system: OVCAR-4 ovarian
SF-268 CNS = test system: SF-268 CNS
UACC-62 melanoma = test system: UACC-62 melanoma
A549 NSCLC = test system: A549 NSCLC
NCI-H23 lung = test system: NCI-H23 lung
BT-549 breast = test system: BT-549 breast
EKVX NSCLC = test system: EKVX NSCLC
T-47D breast = test system: T-47D breast
HS 578T breast = test system: HS 578T breast
ACHN renal = test system: ACHN renal
TK-10 renal = test system: TK-10 renal
OVCAR-5 ovarian = test system: OVCAR-5 ovarian
SF-295 CNS = test system: SF-295 CNS
786-0 renal = test system: 786-0 renal
OVCAR-8 ovarian = test system: OVCAR-8 ovarian
MDA-MB-435 melanoma = test system: MDA-MB-435 melanoma
NCI-H322M lung = test system: NCI-H322M lung
HCT-15 colon = test system: HCT-15 colon
HCT-116 colon = test system: HCT-116 colon
NCI-H522 lung = test system: NCI-H522 lung
OVCAR-3 ovarian = test system: OVCAR-3 ovarian
SW-620 colon = test system: SW-620 colon
U251 glioblastoma = test system: U251 glioblastoma
HCC-2998 colon = test system: HCC-2998 colon
HL-60(TB) leukemia = test system: HL-60(TB) leukemia
HOP-62 NSCLC = test system: HOP-62 NSCLC
MCF7 breast = test system: MCF7 breast
RXF 393 renal = test system: RXF 393 renal
UO-31 renal = test system: UO-31 renal
LOX IMVI melanoma = test system: LOX IMVI melanoma
SNB-75 CNS = test system: SNB-75 CNS
SN12C renal = test system: SN12C renal
DU-145 prostate = test system: DU-145 prostate
SK-OV-3 ovarian = test system: SK-OV-3 ovarian
MALME-3M melanoma = test system: MALME-3M melanoma
SK-MEL-5 melanoma = test system: SK-MEL-5 melanoma
HT29 colon = test system: HT29 colon
MDA-MB-468 breast = test system: MDA-MB-468 breast
K-562 leukemia = test system: K-562 leukemia
MDA-MB-231 breast = test system: MDA-MB-231 breast
UACC-257 melanoma = test system: UACC-257 melanoma

With `Cc1c(C(=O)Nc2ccc(Oc3ccnc4cc(OCC(C)(C)O)ccc34)c(F)c2)c(=O)n(-c2ccccc2)n1C` the GI50 (NCI-H226 lung) was 1930 nM, the TGI (NCI-H226 lung) was 7.08 µM and the GI50 (CCRF-CEM leukemia) was 2610 nM. The TGI (CCRF-CEM leukemia) was 7.97 µM, the GI50 (PC-3 prostate) was 3.76 µM and the TGI (PC-3 prostate) was greater than 100 µM. For the same compound, the GI50 (MOLT-4 leukemia) was 1460 nM, the TGI (MOLT-4 leukemia) was 3.66 µM and the GI50 (CAKI-1 renal) was 963 nM. The TGI (CAKI-1 renal) was greater than 39 µM, the GI50 (IGROV1 ovarian) was 4.3 µM and the TGI (IGROV1 ovarian) was greater than 100 µM. For the same compound, the GI50 (NCI-H460 NSCLC) was 2620 nM, the TGI (NCI-H460 NSCLC) was 6.33 µM and the GI50 (A498 renal) was 3.58 µM. For the same compound, the TGI (A498 renal) was greater than 37.7 µM, the GI50 (SR leukemia) was 2000 nM and the TGI (SR leukemia) was 3.82 µM. For the same compound, the GI50 (KM12 colon) was 258 nM, the TGI (KM12 colon) was greater than 100 µM and the GI50 (M14 melanoma) was 2680 nM. The TGI (M14 melanoma) was greater than 22.7 µM, the GI50 (SNB-19 CNS) was 4.78 µM and the TGI (SNB-19 CNS) was greater than 100 µM. It also gave a GI50 (NCI/ADR-RES ovarian) of 4.13 µM, a TGI (NCI/ADR-RES ovarian) greater than 44.1 µM and a GI50 (SK-MEL-28 melanoma) of 3.58 µM. The TGI (SK-MEL-28 melanoma) was greater than 30.3 µM, the GI50 (SF-539 CNS) was 3.68 µM and the TGI (SF-539 CNS) was greater than 100 µM. It also gave a GI50 (COLO 205 colon) of 2260 nM, a TGI (COLO 205 colon) of 6.93 µM and a GI50 (RPMI-8226 leukemia) of 3.03 µM. The TGI (RPMI-8226 leukemia) was 7.45 µM, the GI50 (HOP-92 NSCLC) was 2360 nM and the TGI (HOP-92 NSCLC) was greater than 25.8 µM. The GI50 (OVCAR-4 ovarian) was 4.8 µM, the TGI (OVCAR-4 ovarian) was greater than 100 µM and the GI50 (SF-268 CNS) was 3.23 µM. For the same compound, the TGI (SF-268 CNS) was greater than 19.7 µM, the GI50 (UACC-62 melanoma) was 1410 nM and the TGI (UACC-62 melanoma) was 4.21 µM. For the same compound, the GI50 (A549 NSCLC) was 4.26 µM, the TGI (A549 NSCLC) was greater than 100 µM and the GI50 (NCI-H23 lung) was 1520 nM. The TGI (NCI-H23 lung) was 7.35 µM, the GI50 (BT-549 breast) was greater than 23.7 µM and the TGI (BT-549 breast) was greater than 65.3 µM. The GI50 (EKVX NSCLC) was 2610 nM, the TGI (EKVX NSCLC) was 8.53 µM and the GI50 (T-47D breast) was 1570 nM. The TGI (T-47D breast) was 4.72 µM, the GI50 (HS 578T breast) was 1860 nM and the TGI (HS 578T breast) was 4.85 µM. For the same compound, the GI50 (ACHN renal) was 3.39 µM, the TGI (ACHN renal) was greater than 100 µM and the GI50 (TK-10 renal) was 5.2 µM. The TGI (TK-10 renal) was greater than 100 µM, the GI50 (OVCAR-5 ovarian) was 3.04 µM and the TGI (OVCAR-5 ovarian) was greater than 100 µM. The GI50 (SF-295 CNS) was 1370 nM, the TGI (SF-295 CNS) was greater than 23.6 µM and the GI50 ([…]-0 renal) was 5.8 µM. It also gave a TGI (786-0 renal) of 96.9 µM, a GI50 (OVCAR-8 ovarian) of 3.69 µM and a TGI (OVCAR-8 ovarian) greater than 88.7 µM. For the same compound, the GI50 (MDA-MB-435 melanoma) was 3.31 µM, the TGI (MDA-MB-435 melanoma) was greater than 31.4 µM and the GI50 (NCI-H322M lung) was 3.34 µM. It also gave a TGI (NCI-H322M lung) of 21.8 µM, a GI50 (HCT-15 colon) of 4.13 µM and a TGI (HCT-15 colon) greater than 69.6 µM. The GI50 (HCT-116 colon) was 3.97 µM, the TGI (HCT-116 colon) was greater than 100 µM and the GI50 (NCI-H522 lung) was 3.74 µM. It also gave a TGI (NCI-H522 lung) greater than 36.9 µM, a GI50 (OVCAR-3 ovarian) of 4.83 µM and a TGI (OVCAR-3 ovarian) greater than 100 µM. For the same compound, the GI50 (SW-620 colon) was 4.53 µM, the TGI (SW-620 colon) was greater than 100 µM and the GI50 (U251 glioblastoma) was 4.93 µM. For the same compound, the TGI (U251 glioblastoma) was greater than 100 µM, the GI50 (HCC-2998 colon) was greater than 31.1 µM and the TGI (HCC-2998 colon) was greater than 100 µM. For the same compound, the GI50 (HL-60(TB) leukemia) was 3.5 µM, the TGI (HL-60(TB) leukemia) was 6.78 µM and the GI50 (HOP-62 NSCLC) was 2340 nM. The TGI (HOP-62 NSCLC) was greater than 22.5 µM, the GI50 (MCF7 breast) was 3.5 µM and the TGI (MCF7 breast) was greater than 38.9 µM. It also gave a GI50 (RXF 393 renal) of 1660 nM, a TGI (RXF 393 renal) of 4.11 µM and a GI50 (UO-31 renal) of 4.31 µM. It also gave a TGI (UO-31 renal) greater than 100 µM, a GI50 (LOX IMVI melanoma) of 2650 nM and a TGI (LOX IMVI melanoma) greater than 44 µM. For the same compound, the GI50 (SNB-75 CNS) was 2680 nM, the TGI (SNB-75 CNS) was greater than 28.1 µM and the GI50 (SN12C renal) was 484 nM. The TGI (SN12C renal) was 4.82 µM, the GI50 (DU-145 prostate) was 6.27 µM and the TGI (DU-145 prostate) was greater than 100 µM. The GI50 (SK-OV-3 ovarian) was 3.51 µM, the TGI (SK-OV-3 ovarian) was greater than 50.8 µM and the GI50 (MALME-3M melanoma) was 2110 nM. The TGI (MALME-3M melanoma) was 5.14 µM, the GI50 (SK-MEL-5 melanoma) was 1890 nM and the TGI (SK-MEL-5 melanoma) was 4.77 µM. The GI50 (HT29 colon) was 2550 nM, the TGI (HT29 colon) was greater than 100 µM and the GI50 (MDA-MB-468 breast) was 1620 nM. For the same compound, the TGI (MDA-MB-468 breast) was 4.86 µM, the GI50 (K-562 leukemia) was 152 nM and the TGI (K-562 leukemia) was 391 nM. For the same compound, the GI50 (MDA-MB-231 breast) was 3.26 µM, the TGI (MDA-MB-231 breast) was greater than 30.4 µM and the GI50 (UACC-257 melanoma) was 3.24 µM. It also gave a TGI (UACC-257 melanoma) of 22 µM.
